{
  "source": "paper PMC12110821",
  "about": "“Polyphyllin I Inhibits the Metastasis of Cervical Cancer Through the Regulation of the β-Catenin Signaling Pathway” (International Journal of Molecular Sciences, 2025)",
  "molecular_target": "T1, β-catenin (Homo sapiens, UniProt P35222)",
  "T1 construct": "gene CTNNB1; β-catenin protein (11279-H20B, Sinobiological)",
  "T1 sequence (P35222 2-781)": "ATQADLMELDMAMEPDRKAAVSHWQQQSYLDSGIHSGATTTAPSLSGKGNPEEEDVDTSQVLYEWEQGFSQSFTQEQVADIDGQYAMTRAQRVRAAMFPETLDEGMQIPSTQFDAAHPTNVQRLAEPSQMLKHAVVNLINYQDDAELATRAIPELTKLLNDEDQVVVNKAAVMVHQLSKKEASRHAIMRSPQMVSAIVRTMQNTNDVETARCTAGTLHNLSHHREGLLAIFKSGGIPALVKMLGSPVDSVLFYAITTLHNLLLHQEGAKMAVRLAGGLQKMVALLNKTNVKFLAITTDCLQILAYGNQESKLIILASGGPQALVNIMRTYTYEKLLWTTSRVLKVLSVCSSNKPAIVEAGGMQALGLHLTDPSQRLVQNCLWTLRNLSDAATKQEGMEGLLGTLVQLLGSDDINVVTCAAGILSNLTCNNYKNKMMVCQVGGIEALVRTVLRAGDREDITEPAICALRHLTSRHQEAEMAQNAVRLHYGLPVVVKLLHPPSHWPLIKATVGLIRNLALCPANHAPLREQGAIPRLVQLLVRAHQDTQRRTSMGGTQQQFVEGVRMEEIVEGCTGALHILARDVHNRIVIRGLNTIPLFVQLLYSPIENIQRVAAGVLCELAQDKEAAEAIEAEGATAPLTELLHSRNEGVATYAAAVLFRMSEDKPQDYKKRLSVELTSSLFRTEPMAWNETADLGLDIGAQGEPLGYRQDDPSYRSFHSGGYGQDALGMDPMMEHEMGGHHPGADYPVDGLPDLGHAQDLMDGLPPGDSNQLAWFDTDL",
  "experiment": "SPR (Biacore T200, CM5 chip, amine-coupled β-catenin); supported by CETSA in HO-8910PM lysate",
  "format": "binding",
  "data": [
    {"compound": "C[C@@H]1CC[C@@]2(OC1)O[C@H]1C[C@H]3[C@@H]4CC=C5C[C@@H](O[C@@H]6O[C@H](CO)[C@@H](O[C@@H]7O[C@@H](CO)[C@H](O)[C@H]7O)[C@H](O)[C@H]6O[C@@H]6O[C@@H](C)[C@H](O)[C@@H](O)[C@H]6O)CC[C@]5(C)[C@H]4CC[C@]3(C)[C@H]1[C@@H]2C", "note": "[PPI, Polyphyllin I]", "values": [
      {"measurement": "Kd", "value": 2.2, "unit": "µM"}
    ]}
  ]
}
